Test results reported in PubChem BioAssay AID330 (DTP/NCI, 2004).
Toxic doses and inconclusive results are not listed. The calls were made as follows: active = survival T/C of 150% or more; inactive = T/C below 125% in these data.

System: P388 leukemia ip, CD2F1 mice, survival T/C
Assay: NCI In Vivo Anticancer Drug Screen. Data for tumor model P388 Leukemia (intraperitoneal) in CD2F1 (CDF1) mice
Settings: endpoint: median survival time, higher = longer survival
Method in brief: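 Mice carrying the transplanted tumor received test compound or vehicle. Survival was recorded in each group, and the value is the treated-group measurement divided by that of the vehicle-treated control group.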

[1] = dose: 12.5 mg/kg/injection, schedule: Q01DX009 (ip), vehicle: saline
[2] = dose: 25.0 mg/kg/injection, schedule: Q01DX009 (ip), vehicle: saline
[3] = dose: 50.0 mg/kg/injection, schedule: Q01DX009 (ip), vehicle: saline
[4] = dose: 100.0 mg/kg/injection, schedule: Q01DX009 (ip), vehicle: saline
[5] = dose: 60.0 mg/kg/injection, schedule: Q01DX005 (ip), vehicle: saline with Tween-80
[6] = dose: 120.0 mg/kg/injection, schedule: Q01DX005 (ip), vehicle: saline with Tween-80
[7] = dose: 240.0 mg/kg/injection, schedule: Q01DX005 (ip), vehicle: saline with Tween-80
[8] = dose: 12.5 mg/kg/injection, schedule: Q01DX005 (ip), vehicle: Klucel (hydroxypropylcellulose) (HPC)
[9] = dose: 50.0 mg/kg/injection, schedule: Q01DX005 (ip), vehicle: Klucel (hydroxypropylcellulose) (HPC)
[10] = dose: 100.0 mg/kg/injection, schedule: Q01DX005 (ip), vehicle: Klucel (hydroxypropylcellulose) (HPC)
[11] = dose: 200.0 mg/kg/injection, schedule: Q01DX005 (ip), vehicle: Klucel (hydroxypropylcellulose) (HPC)
[12] = dose: 6.25 mg/kg/injection, schedule: Q01DX009 (ip), vehicle: saline
[13] = dose: 50.0 mg/kg/injection, schedule: Q01DX009 (ip), vehicle: Klucel (hydroxypropylcellulose) (HPC)
[14] = dose: 100.0 mg/kg/injection, schedule: Q01DX009 (ip), vehicle: Klucel (hydroxypropylcellulose) (HPC)
[15] = dose: 200.0 mg/kg/injection, schedule: Q01DX009 (ip), vehicle: Klucel (hydroxypropylcellulose) (HPC)
[16] = dose: 200.0 mg/kg/injection, schedule: Q01DX009 (ip), vehicle: saline
[17] = dose: 50.0 mg/kg/injection, schedule: Q01DX005 (ip), vehicle: saline with Tween-80
[18] = dose: 100.0 mg/kg/injection, schedule: Q01DX005 (ip), vehicle: saline with Tween-80
[19] = dose: 25.0 mg/kg/injection, schedule: Q01DX005 (ip), vehicle: Klucel (hydroxypropylcellulose) (HPC)
[20] = dose: 200.0 mg/kg/injection, schedule: Q01DX005 (ip), vehicle: saline with Tween-80
[21] = dose: 100.0 mg/kg/injection, schedule: Q01DX001 (ip), vehicle: Klucel (hydroxypropylcellulose) (HPC)
[22] = dose: 200.0 mg/kg/injection, schedule: Q01DX001 (ip), vehicle: Klucel (hydroxypropylcellulose) (HPC)
[23] = dose: 400.0 mg/kg/injection, schedule: Q01DX001 (ip), vehicle: Klucel (hydroxypropylcellulose) (HPC)

Measured: T/C

Cc1nc2[nH]c(=S)[nH]c(=O)c2[nH]c1=O
inactive: [1] 97 % of control | [2] 114 % of control | [3] 120 % of control | [4] 120 % of control

COC1=CC(=O)/C(=C(O)/C=C/c2ccccc2)C(=O)C1(C)C
inactive: [5] 108 % of control | [6] 115 % of control | [7] 123 % of control

CS(=O)(=O)c1nnc(-c2cc[n+]([O-])cc2)s1
inactive: dose: 6.25 mg/kg/injection, schedule: Q01DX005 (ip), vehicle: Klucel (hydroxypropylcellulose) (HPC) 114 % of control | [8] 114 % of control

O=c1c(I)cn(CC(O)CO)c(=O)n1CC(O)CO (configuration not stated)
inactive: [9] 95 % of control | [10] 100 % of control | [11] 86 % of control

CCOC(=O)Nc1cc(NC(=O)OCC)cc([N+](=O)[O-])c1
inactive: dose: 100.0 mg/kg/injection, schedule: Q04DX003 (ip), vehicle: saline with Tween-80 100 % of control | dose: 200.0 mg/kg/injection, schedule: Q04DX003 (ip), vehicle: saline with Tween-80 104 % of control | dose: 400.0 mg/kg/injection, schedule: Q04DX003 (ip), vehicle: saline with Tween-80 90 % of control

CCOC(=O)C(Cc1ccccc1)NO (configuration not stated)
inactive: dose: 6.25 mg/kg/injection, schedule: Q01DX009 (ip), vehicle: saline with Tween-80 98 % of control | dose: 12.5 mg/kg/injection, schedule: Q01DX009 (ip), vehicle: saline with Tween-80 100 % of control

Cc1c[n+]2ccccc2n1C
inactive: dose: 1.56 mg/kg/injection, schedule: Q01DX009 (ip), vehicle: saline 98 % of control | dose: 3.13 mg/kg/injection, schedule: Q01DX009 (ip), vehicle: saline 95 % of control | [12] 89 % of control

CCOC(=O)C1(n2[nH]c(=O)n(-c3ccccc3)c2=O)CC(C)OC1=O (configuration not stated)
inactive: [13] 94 % of control | [14] 91 % of control | [15] 91 % of control

COC1(NS(=O)(=O)c2ccc(C)cc2)CC1
inactive: dose: 60.0 mg/kg/injection, schedule: Q01DX005 (ip), vehicle: Klucel (hydroxypropylcellulose) (HPC) 103 % of control | dose: 120.0 mg/kg/injection, schedule: Q01DX005 (ip), vehicle: Klucel (hydroxypropylcellulose) (HPC) 91 % of control

C#CCOc1ccccc1O
inactive: [4] 100 % of control | [16] 110 % of control | dose: 400.0 mg/kg/injection, schedule: Q01DX009 (ip), vehicle: saline 115 % of control

CCOC(=O)c1c[nH]c2cc3ccccc3cc2c1=O
inactive: [3] 91 % of control | [4] 107 % of control | [16] 117 % of control

COc1cc(CC2c3cc(OC)c(OC)cc3CCN2C)c(Oc2cc3c(cc2OC)-c2c(OC)c(OC)c(OC)c4c2C(C3)N(C)CC4)cc1OC (configuration not stated)
inactive: dose: 37.5 mg/kg/injection, schedule: Q01DX009 (ip), vehicle: Klucel (hydroxypropylcellulose) (HPC) 102 % of control | dose: 75.0 mg/kg/injection, schedule: Q01DX009 (ip), vehicle: Klucel (hydroxypropylcellulose) (HPC) 88 % of control | dose: 150.0 mg/kg/injection, schedule: Q01DX009 (ip), vehicle: Klucel (hydroxypropylcellulose) (HPC) 94 % of control

O=NN(CC(=O)OCc1ccccc1)OCc1ccccc1
inactive: dose: 12.5 mg/kg/injection, schedule: Q01DX009 (ip), vehicle: other 101 % of control | dose: 25.0 mg/kg/injection, schedule: Q01DX009 (ip), vehicle: other 104 % of control | dose: 50.0 mg/kg/injection, schedule: Q01DX009 (ip), vehicle: other 102 % of control | dose: 100.0 mg/kg/injection, schedule: Q01DX009 (ip), vehicle: other 108 % of control | dose: 200.0 mg/kg/injection, schedule: Q01DX009 (ip), vehicle: other 100 % of control

NC(=S)N/N=C1\C(=O)NC(=O)C1c1ccccc1 (configuration not stated)
inactive: [17] 115 % of control | [18] 105 % of control

O=c1c(Cl)c2oc3ccc([N+](=O)[O-])cc3nc-2c(Cl)c1Cl
inactive: dose: 50.0 mg/kg/injection, schedule: Q01DX009 (ip), vehicle: saline with Tween-80 109 % of control | dose: 100.0 mg/kg/injection, schedule: Q01DX009 (ip), vehicle: saline with Tween-80 107 % of control

C=C1NC(=O)C(N)=C1C(C)=O
inactive: [5] 100 % of control | [6] 104 % of control

COc1ccc(OC)c2c(Cl)cc(N)nc12
inactive: [19] 102 % of control | [9] 106 % of control | [10] 101 % of control | [11] 102 % of control

CC(=O)Nc1ccc(OCC(O)CNC(C)C)c(C(C)=O)c1 (configuration not stated)
inactive: [3] 101 % of control | [4] 92 % of control | [16] 97 % of control

CC1(C)N=C(N)N=C(N)N1c1ccc(F)cc1
inactive: [8] 110 % of control | [19] 113 % of control

C=C(C)c1ccc2c(c1)[C@H](OC(=O)c1ccccc1)C[C@H]1[C@](C)(COC(=O)c3ccccc3)CCC[C@]21C
inactive: [5] 105 % of control | [6] 92 % of control | [7] 90 % of control

Cn1c(=O)n2n(c1=O)C1C3C4C5C3C13COCC53C42 (configuration not stated)
inactive: [13] 97 % of control | [14] 97 % of control | [15] 100 % of control

OCCNC(Cc1ccccc1)c1c(O)ccc2ccccc12 (configuration not stated)
inactive: [9] 100 % of control | [10] 94 % of control | [11] 100 % of control

CCCCCCCCCCCCOC(=O)c1ccc(O)cc1
inactive: [13] 98 % of control | [14] 94 % of control

CCC[CH2][Sn]([CH2]CCC)([CH2]CCC)[CH2]CC[N+](C)(CCO)CCO.CS(=O)(=O)[O-]
inactive: dose: 3.12 mg/kg/injection, schedule: Q01DX009 (ip), vehicle: saline 87 % of control | [12] 91 % of control | [1] 97 % of control | [3] 86 % of control | [4] 95 % of control | [16] 98 % of control

CNC(=O)c1ccccc1C1(O)c2ccccc2CCc2ccccc21
inactive: [17] 94 % of control | [18] 93 % of control | [20] 90 % of control

CC(=O)NCCc1nc(-c2nc(C(=O)NCCC(C)C)cs2)cs1
inactive: dose: 12.5 mg/kg/injection, schedule: Q01DX009 (ip), vehicle: distilled water + Tween-80 92 % of control | dose: 25.0 mg/kg/injection, schedule: Q01DX009 (ip), vehicle: distilled water + Tween-80 94 % of control | dose: 50.0 mg/kg/injection, schedule: Q01DX009 (ip), vehicle: distilled water + Tween-80 98 % of control | dose: 100.0 mg/kg/injection, schedule: Q01DX009 (ip), vehicle: distilled water + Tween-80 102 % of control | dose: 200.0 mg/kg/injection, schedule: Q01DX009 (ip), vehicle: distilled water + Tween-80 115 % of control

NC(CSCc1ccccc1)C(=O)Nc1ccc([N+](=O)[O-])cc1 (configuration not stated)
inactive: [9] 110 % of control | [10] 101 % of control | [11] 104 % of control

C1CNC(CCNCCSCCNCCC2=NCCN2)=N1
inactive: [1] 100 % of control | [2] 96 % of control | [3] 100 % of control

C[N+]12CN3CN(CP(C3)C1)C2
inactive: [12] 99 % of control | [1] 100 % of control | [2] 101 % of control

Cc1ccc(C2(O)CC3CCC(C2)N3C)cc1 (configuration not stated)
inactive: [21] 103 % of control | [22] 110 % of control | [23] 101 % of control

CN(c1ccccc1)c1c(Cl)c(=O)oc2c1ccc1nc(-c3ccccc3)sc12
inactive: [17] 86 % of control | [18] 90 % of control | [20] 86 % of control

Nc1nnn(-c2ccccc2)n1
inactive: [21] 102 % of control | [22] 101 % of control | [23] 102 % of control

Cc1cc(C)nc(NS(=O)(=O)c2ccc(N=c3c4ccccc4n(Cc4ccccc4)c4ccccc34)cc2)n1
inactive: [17] 98 % of control | [18] 88 % of control

COc1c(C(C)C)cc2c(c1OC)C13CCCC(C)(C)C1C(OC3=O)C2NC(=O)CN1CCN(CCO)CC1 (configuration not stated)
inactive: dose: 25.0 mg/kg/injection, schedule: Q01DX009 (ip), vehicle: Klucel (hydroxypropylcellulose) (HPC) 106 % of control | [13] 97 % of control | [14] 88 % of control
